Assay [1] has as its target T1, BKCa channels co-expressed with the β4 subunits (rSlo α + KCNMB4) (Rattus norvegicus, UniProt Q62976).
T1 construct: expressed in transfected cells; host or cells: Xenopus laevis oocytes, cRNA alpha:beta 1:12
In words: Macroscopic current recording, BKCa channels co-expressed with β4 subunits in Xenopus oocytes. It is filed as cell-based. Particulars: 10 μM. The text has this: (§1) The complete coding sequence (CDS) of each of rat KCNMA (rSlo α) (GenBank AF135265.1), KCNMB1 (rSlo 01) (GenBank FJ154955.1) and KCNMB4 (rSlo β4) (GenBank AY028605) was subcloned into pNBC2.0 or pNBC2.0. These vectors were designed to be expressed in Xenopus oocytes (Ha, T. S., Lim, H. H., Lee, G. E., Kim, Y. C., & Park, C. S. (2006). Electrophysiological characterization of benzofuroindole-induced potentiation of large-conductance Ca2+-activated K+ channels. Mol Pharmacol, 69(3), 1007-1014). The plasmid was linearized by NotI and complementary RNA (cRNA) was synthesized using the Ambion T7 mMESSAGE mMACHINE kit (Invitrogen, Carlsbad, CA, USA) according to the manufacturer's instructions. Xenopus laevis (KXRCR000001) was obtained from the Korea Xenopus Resource Center for Research (Chuncheon-si, Gangwon-do, Korea). Stage V-VI oocytes were surgically extracted from the ovarian lobes of X. laevis. A follicular cell layer was removed by culturing in Ca^2+-free oocyte Ringer's medium (86 mM NaCl, 1.5 mM KCl, 2 mM MgCl2 and 10 mM HEPES, pH 7.6) containing collagenase for 1.5 hours at room temperature. Oocytes without follicular layer were washed with ND-96 medium (96 mM NaCl, 2 mM KCl, 1.8 mM CaCl2), 1 mM MgCl2, 5 mM HEPES, […] gentamicin, pH 7.6). The prepared oocytes were stabilized overnight at 18° C. cRNA was injected into each oocyte (50 ng per oocyte) using a microdispenser (Drummond Scientific, Broomall, PA, USA). For co-expression of the β subunits, cRNA was mixed at a molar ratio of 1:12 (α:β) to induce sufficient co-assembly of the R subunits. After injection of cRNA, the oocytes were cultured in ND-96 medium for 1-3 days at 18° C. Before recording macroscopic currents, vitelline membranes of the oocytes were completely removed using fine forceps.
(§2) All macroscopic current recordings in the BKCa channels were performed using the gigaohm-seal patch-clamp method in an outside-out configuration (Ha et al., 2006). A patch pipette was made of borosilicate glass (WPI, Sarasota, FL, USA) and fire-polished by a resistance of 3-5 MQ. […]

The target of assay [2] is T2, BKCa channels (rat KCNMA, rSlo α) (Rattus norvegicus, UniProt Q62976).
T2 construct: expressed in transfected cells; host or cells: Xenopus laevis oocytes injected with cRNA
T2 sequence (Q62976 whole entry): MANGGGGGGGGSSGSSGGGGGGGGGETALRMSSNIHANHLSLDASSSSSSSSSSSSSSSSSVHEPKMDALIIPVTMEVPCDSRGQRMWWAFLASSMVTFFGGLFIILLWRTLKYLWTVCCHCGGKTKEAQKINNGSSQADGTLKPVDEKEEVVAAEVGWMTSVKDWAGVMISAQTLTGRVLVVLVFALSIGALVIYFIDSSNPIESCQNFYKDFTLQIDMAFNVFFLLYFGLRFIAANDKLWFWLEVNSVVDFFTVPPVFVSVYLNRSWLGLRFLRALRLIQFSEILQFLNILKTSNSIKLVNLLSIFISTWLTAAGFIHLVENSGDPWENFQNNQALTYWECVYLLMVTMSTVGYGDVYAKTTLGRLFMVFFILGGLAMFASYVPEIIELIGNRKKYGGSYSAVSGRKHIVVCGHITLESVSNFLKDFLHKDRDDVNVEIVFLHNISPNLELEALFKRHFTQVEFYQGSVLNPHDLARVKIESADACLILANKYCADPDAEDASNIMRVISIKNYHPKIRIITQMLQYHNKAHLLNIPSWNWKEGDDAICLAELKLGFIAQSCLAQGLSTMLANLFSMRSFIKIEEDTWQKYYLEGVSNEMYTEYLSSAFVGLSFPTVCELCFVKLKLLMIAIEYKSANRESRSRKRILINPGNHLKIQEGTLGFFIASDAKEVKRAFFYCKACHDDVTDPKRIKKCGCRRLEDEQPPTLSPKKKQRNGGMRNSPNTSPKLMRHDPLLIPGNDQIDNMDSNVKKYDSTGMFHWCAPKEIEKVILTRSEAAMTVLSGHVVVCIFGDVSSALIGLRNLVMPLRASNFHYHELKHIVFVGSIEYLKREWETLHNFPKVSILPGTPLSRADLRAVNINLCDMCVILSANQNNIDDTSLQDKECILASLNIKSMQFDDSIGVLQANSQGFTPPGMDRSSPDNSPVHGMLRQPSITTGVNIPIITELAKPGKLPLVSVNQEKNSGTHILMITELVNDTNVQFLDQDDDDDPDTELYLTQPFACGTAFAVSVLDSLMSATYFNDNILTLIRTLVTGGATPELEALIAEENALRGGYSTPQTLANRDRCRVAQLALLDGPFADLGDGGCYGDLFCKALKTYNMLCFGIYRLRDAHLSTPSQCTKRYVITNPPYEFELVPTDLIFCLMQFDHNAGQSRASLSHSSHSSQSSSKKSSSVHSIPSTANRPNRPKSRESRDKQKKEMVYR
The assay is described as follows: Macroscopic current recording, outside-out patch clamp, BKCa channels expressed in Xenopus oocytes. Type of assay: cell-based.
Source text: as §1
All macroscopic current recordings in the BKCa channels were performed using the gigaohm-seal patch-clamp method in an outside-out configuration (Ha et al., 2006). A patch pipette was made of borosilicate glass (WPI, Sarasota, FL, USA) and fire-polished by a resistance of 3-5 MQ. Ion currents were amplified using an Axopatch 200B amplifier (Molecular Devices). The currents were low-pass filtered at 1 kHz using a four-pole Bessel filter and digitized at a rate of 10 or 20 points/ms using a Digidata 1200A interface (Molecular Devices). The BKCa channels were activated by repeated voltage clamps at +100 mV or by voltage clamp pulses ranging from −80 to +200 mV with an increment of 10 mV. The resting potential was maintained at −100 mV. The recording solution contained 116 mM KOH, 4 mM KCl, 10 mM HEPES, and 5 mM EGTA (pH 7.2). The intracellular solution contained 3 μM Ca^2+ in the recording solution (pH 7.0). MaxChelator program was used to calculate the total amount of Ca^2+ to be added to the intracellular solution for obtaining free Ca^2+ at a concentration of 3 μM.
The commercial software Clampex 8.0 (Molecular Device) and Origin 9.1 (OriginLab Corp., Northampton, MA, USA) were used for data analysis and fitting of the macroscopic currents. A conductance-voltage (G-V) curve obtained from the external current was fitted by the Boltzmann equation [y=(Gmax−Gmin)/{1+exp[(V1/2−x)/k]}+Gmin]. Wherein k is RT/zF, and wherein R is a gas constant, T is a temperature, F is the Faraday's constant, and z is a gating charge. Gmax is the maximum conductivity and V1/2 is a voltage for half maximum conductivity. The concentration-dependent V1/2 shift was fitted by the Hill equation [y=AVi/2,max x^n/(EC50^n+x^n)]. Wherein ΔV1/2,max is a constant. EC50 is half the apparent maximum effective concentration and n is the Hill coefficient. By definition, the apparent dissociation constant KD was obtained by EC50^n. The association time constant (r association) was obtained by fitting the exponential equation [y=A exp(−x/τ)+C]. Wherein A and C are constants and τ is the time to reach (1−1/e) ( ? 63%) of the maximum current level. […]

Assay [3] addresses T3, BKCa channels co-expressed with the β1 subunit (rSlo α + KCNMB1) (Rattus norvegicus, UniProt Q62976).
T3 construct: expressed in transfected cells; host or cells: Xenopus laevis oocytes, cRNA alpha:beta 1:12
In words: Macroscopic current recording, BKCa channels co-expressed with β1 subunits in Xenopus oocytes. Type of assay: cell-based. Particulars: 10 μM.
Source text: as §1, §2

The target of assay [4] is T4, hyperactive mutant BKCa channels (hSlo G803D/N806K) stably expressed in AD 293 cells (Homo sapiens, UniProt Q12791, G856D/N859K).
T4 construct: expressed in transfected cells
T4 sequence (Q12791 whole entry G856D/N859K): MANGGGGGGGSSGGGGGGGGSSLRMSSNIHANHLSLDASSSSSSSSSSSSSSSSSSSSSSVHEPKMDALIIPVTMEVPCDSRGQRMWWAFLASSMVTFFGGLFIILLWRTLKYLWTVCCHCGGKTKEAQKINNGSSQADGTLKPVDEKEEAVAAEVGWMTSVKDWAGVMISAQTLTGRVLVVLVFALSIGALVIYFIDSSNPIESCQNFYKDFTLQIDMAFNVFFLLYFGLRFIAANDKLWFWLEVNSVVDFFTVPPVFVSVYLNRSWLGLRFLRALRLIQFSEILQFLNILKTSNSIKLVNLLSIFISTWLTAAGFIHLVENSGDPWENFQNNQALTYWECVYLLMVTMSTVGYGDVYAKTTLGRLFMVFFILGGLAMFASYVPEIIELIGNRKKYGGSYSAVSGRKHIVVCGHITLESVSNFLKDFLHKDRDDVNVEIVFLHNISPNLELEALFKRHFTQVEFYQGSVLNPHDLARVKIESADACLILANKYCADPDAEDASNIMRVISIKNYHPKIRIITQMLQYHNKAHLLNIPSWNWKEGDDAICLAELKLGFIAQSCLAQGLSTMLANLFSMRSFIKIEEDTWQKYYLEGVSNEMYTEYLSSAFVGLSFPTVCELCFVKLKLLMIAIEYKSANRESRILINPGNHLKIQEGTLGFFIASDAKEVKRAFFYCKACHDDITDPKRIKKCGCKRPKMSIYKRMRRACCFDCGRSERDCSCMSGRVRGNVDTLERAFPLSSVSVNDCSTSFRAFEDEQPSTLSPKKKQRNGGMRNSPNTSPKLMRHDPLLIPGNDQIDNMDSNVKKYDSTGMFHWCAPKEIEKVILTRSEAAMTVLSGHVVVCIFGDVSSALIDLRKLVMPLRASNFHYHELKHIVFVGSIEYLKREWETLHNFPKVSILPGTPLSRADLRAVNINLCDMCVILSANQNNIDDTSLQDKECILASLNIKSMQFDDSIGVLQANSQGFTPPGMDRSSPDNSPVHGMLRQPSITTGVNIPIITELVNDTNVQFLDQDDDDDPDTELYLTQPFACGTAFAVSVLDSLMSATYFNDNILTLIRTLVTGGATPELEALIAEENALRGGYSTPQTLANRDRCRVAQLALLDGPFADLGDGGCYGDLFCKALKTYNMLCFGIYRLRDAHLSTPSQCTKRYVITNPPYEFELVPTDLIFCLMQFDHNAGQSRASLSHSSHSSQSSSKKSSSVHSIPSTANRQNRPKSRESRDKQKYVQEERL
The assay is described as follows: Cell-based fluorescence assay (FluxOR Potassium Ion Channel Assay) of BKCa channel activation. Particulars: compounds at 5 μM; n=3; vehicle 0.26.

The subject of assay [5] is Spontaneously hypertensive rats (SHR). In words: In vivo model of OAB: urination in spontaneously hypertensive rats after oral administration. Further details: species or system rat. The settings on record: 3 hours. Here is the method: Male rats with body weights of 300 to 350 g were deprived of food and water overnight before the experiment, and then were randomly divided into a drug administration group and a control group. All animals were provided free access to water for 2 hours, and then 10 mL/kg of vehicle solution [DMSO:PEG400:distilled water=5:40:55 (v/v)] as a test substance were orally administered. After oral administration of the test substance, the rats were placed in a metabolic cage and the number of urinations and urine volume were measured for 3 hours.
The in vivo treatment effects of the compounds for […] were investigated in spontaneously hypertensive rats (SHR) with OAB symptoms after oral administration. Wistar-Kyoto rats (WKY) were used as the healthy animal control, and urination frequency was increased more than 2.8 times in SHR compared to WKY. Compound 208 reduced the urination frequency in SHR (50 mg/kg) by 33%, which is quite close to the urination frequency of the normal group (see FIG. 18).

Setting [6] is: washout after 10 μM, double exponential fit.

The record followed here is patent publication US20240398813A1, “PHARMACEUTICAL COMPOSITION FOR PREVENTING OR TREATING OVERACTIVE BLADDER” (GWANGJU INSTITUTE OF SCIENCE AND TECHNOLOGY, priority 2021, published 2024).

T3 sequence (Q62976 whole entry): as the sequence (Q62976 whole entry) above
T3 sequence (P97678 whole entry partner): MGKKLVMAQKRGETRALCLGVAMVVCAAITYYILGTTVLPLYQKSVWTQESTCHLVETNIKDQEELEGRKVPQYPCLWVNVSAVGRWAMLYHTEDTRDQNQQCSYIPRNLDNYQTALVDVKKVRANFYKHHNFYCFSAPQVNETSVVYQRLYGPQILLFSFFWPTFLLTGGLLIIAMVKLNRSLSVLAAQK
T1 sequence (Q62976 whole entry): as the sequence (Q62976 whole entry) above
T1 sequence (Q9ESK8 whole entry partner): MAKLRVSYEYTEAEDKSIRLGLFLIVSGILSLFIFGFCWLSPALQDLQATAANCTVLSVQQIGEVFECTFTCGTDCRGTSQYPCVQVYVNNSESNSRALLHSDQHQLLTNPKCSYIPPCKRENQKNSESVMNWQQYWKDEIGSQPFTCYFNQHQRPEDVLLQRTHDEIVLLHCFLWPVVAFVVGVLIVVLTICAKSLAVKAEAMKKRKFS

Consider `Cc1cccc(NC(=O)c2sc(=S)n3c2[nH]c(=O)c2cc(Br)ccc23)c1` [TTQC-1, 7-bromo-5-oxo-1-thioxo-N-(m-tolyl)-4,5-dihydro-1H-thiazolo[3,4-a]quinazoline-3-carboxamide], for which the “effect on τ activation” value in assay [1] is given as “did not significantly affect”. In addition, the “increase of τ deactivation” value in assay [1] (at 170 mV) came out at 3.7 times. Also, the “shift of G-V curve to the left” value in assay [1] (β4 co-expressed) stood at 7.12±0.65 mV. In addition, in assay [2] (10 μM), the “effect on channel activation time constant (τ activation)” value is listed as “did not show significant changes”. In addition, the “association time constant (τ association)” value in assay [2] (10 μM, +100 mV pulses, 3 μM intracellular Ca2+) was found to be 11.7 ± 1.77 s. The “increase of channel deactivation time constant (τ deactivation)” value in assay [2] (10 μM, at +200 mV) worked out at 5.3 times. For the same compound, in assay [2] (30 μM), the “half-activation voltage (V1/2)” value amounted to 37.9±7.50 mV and the “increase of maximum conductance (Gmax) compared to vehicle (G0max)” value is 1.4±0.11 times. The EC50 in assay [2] (0.1-30 μM, 3 μM intracellular Ca2+, read-out: apparent EC50 of V1/2 shift (Hill equation)) is 2800 nM. In addition, the Hill coefficient n in assay [2] (fit of V1/2 shift) is on record as 2.0. Moreover, in assay [2] (washout after 10 μM), the “Afast (amplitude of fast dissociation component)” value is reported as 0.49±0.064 and the “Aslow (amplitude of slow dissociation component)” value was 0.53±0.054. Further, in assay [2] (setting [6]), the “dissociation time constant, fast component” value stood at 7.8 ± 1.10 s and the “dissociation time constant, slow component” value was found to be 136.2 ± 11.24 s. Besides, the “effect on τ activation” value in assay [3] was “changed the τ activation only at 190 mV”. Further, the “increase of τ deactivation” value in assay [3] (at 180 mV) was determined as 4.6 times. Besides, the “shift of G-V curve to the left” value in assay [3] (β1 co-expressed) was found to be 23.0±2.67 mV. In addition, in assay [4], the “Activity (ΔRFU normalized by activities of LDD175)” value turned out to be 1.06. Besides, in assay [5] (10 mg/kg oral, SHR vehicle 8.2), the “number of urinary events” value amounted to 3.0. For the same compound, in assay [5] (oral), the total urine volume entry is “significantly reduced”.
